In US12060347B2 (BRISTOL-MYERS SQUIBB COMPANY, priority 2016, dated 2024):

Biological target: T1, human PAR4 (Homo sapiens, UniProt Q96RI0)
T1 construct: expressed in transfected cells; host or cells: HEK293 PAR4 Clone 1.2A (BMS Arctic ID 383940)
T1 sequence (Q96RI0 18-385): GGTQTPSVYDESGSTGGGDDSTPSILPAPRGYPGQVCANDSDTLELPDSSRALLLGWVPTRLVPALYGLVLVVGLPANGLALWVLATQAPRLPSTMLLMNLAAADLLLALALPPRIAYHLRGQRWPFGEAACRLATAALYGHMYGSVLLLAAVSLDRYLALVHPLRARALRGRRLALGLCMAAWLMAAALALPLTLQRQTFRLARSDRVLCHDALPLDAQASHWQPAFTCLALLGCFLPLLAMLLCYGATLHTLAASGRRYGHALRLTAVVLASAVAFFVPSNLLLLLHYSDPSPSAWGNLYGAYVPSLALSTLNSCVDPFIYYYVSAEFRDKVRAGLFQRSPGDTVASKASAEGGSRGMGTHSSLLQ
Assay: PAR4 FLIPR assay: antagonism of agonist-peptide-induced calcium mobilization in PAR4-expressing HEK293 cells
Type: cell-based
Conditions: H-Ala-Phe(4-F)-[…]NH2-induced intracellular calcium mobilization, 11-point curves

SMILES | IC50 [nM]
COc1cnc2c(-c3nc4c(Cl)c(F)c(OCCOC(=O)Nc5nsc(OC)n5)cc4s3)cc(C)cc2n1 [Example 363, 2-((4-chloro-5-fluoro-2-(2-methoxy-7-methylquinoxalin-5-yl)benzo[d]thiazol-6-yl)oxy)ethyl (5-methoxy-1,2,4-thiadiazol-3-yl)carbamate] | 1700
COc1cnc2c(-c3nc4c(Cl)c(F)c(OC[C@@H](C)OC(=O)Nc5cnc6c(c5)CC=N6)cc4s3)cc(C)cc2n1 [Example 375, (R)-1-((4-chloro-5-fluoro-2-(2-methoxy-7-methylquinoxalin-5-yl)benzo[d]thiazol-6-yl)oxy)propan-2-yl 3H-pyrrolo [2,3-b]pyridin-5-yl carbamate] | 1.7
COc1cnc2c(-c3nc4cc(F)c(OC[C@@H](C)OC(=O)Nc5ccnc(OCCC(C)(C)O)c5)nc4s3)cc(C)cc2n1 [Example 699, (R)-1-((6-fluoro-2-(2-methoxy-7-methylquinoxalin-5-yl)thiazolo[5,4-b]pyridin-5-yl)oxy) propan-2-yl (2-(3-hydroxy-3-methylbutoxy)pyridin-4-yl)carbamate] | 1.1
COc1cnc2c(-c3nc4cc(F)c(O[C@@H](C)[C@@H](C)OC(=O)Nc5cnc(OC[C@@H](C)O)nc5)nc4s3)cc(C)cc2n1 [Example 729, (2R,3S)-3-((6-fluoro-2-(2-methoxy-7-methylquinoxalin-5-yl)thiazolo[5,4-b]pyridin-5-yl)oxy)butan-2-yl (2-((R)-2-hydroxypropoxy)pyrimidin-5-yl)carbamate] | 2.8
Cc1ncc(NC(=O)O[C@H](C)[C@H](C)Oc2cc3sc(-c4cc(Cl)cc5cc(OCC(F)F)cnc45)nc3cc2F)cn1 [Example 651, (2R,3S)-3-((2-(6-chloro-3-(2,2-difluoroethoxy)quinolin-8-yl)-5-fluorobenzo[d]thiazol-6-yl)oxy)butan-2-yl (2-methylpyrimidin-5-yl)carbamate] | 4.3
COc1cnc2c(-c3nc4c(C)cc(OCCNS(=O)(=O)c5ccc(F)cc5)cc4s3)cc(C(O)c3ccccc3)cc2n1 (stereo not drawn) [Example 240, 4-fluoro-N-(2-((2-(7-(hydroxy(phenyl)methyl)-2-methoxyquinoxalin-5-yl)-4-methylbenzo[d]thiazol-6-yl)oxy)ethyl)benzenesulfonamide] | 72
COc1cnc2c(-c3nc4cc(F)c(OC[C@@H](C)OC(=O)Nc5cnc(C(=O)N(C)C)nc5)cc4s3)cc(C)cc2n1 [Example 431, (R)-1-((5-fluoro-2-(2-methoxy-7-methylquinoxalin-5-yl)benzo[d]thiazol-6-yl)oxy)propan-2-yl (2-(dimethylcarbamoyl)pyrimidin-5-yl)carbamate] | 1.1
Cc1cc(-c2nc3cc(F)c(O[C@@H](C)[C@@H](C)OC(=O)Nc4cnc(C)nc4)cc3s2)c2ncc(OC(F)F)cc2c1 [Example 659, (2R,3S)-3((2-(3-(difluoromethoxy)-6-methylquinolin-8-yl)-5-fluorobenzo[d]thiazol-6-yl)oxy)butan-2-yl (2-methylpyrimidin-5-yl)carbamate] | 2.1
COC(=O)c1cc(NC(=O)OCCOc2cc3sc(-c4cc(C)cc5nc(OC)cnc45)nc3c(Cl)c2F)cn1C [Example 378, methyl 4-(((2-((4-chloro-5-fluoro-2-(2-methoxy-7-methylquinoxalin-5-yl)benzo[d]thiazol-6-yl)oxy)ethoxy)carbonyl)amino)-1-methyl-1H-pyrrole-2-carboxylate] | 8.7
COc1cnc2c(-c3nc4cc(F)c(OCC(COCC(C)C)OC(=O)Nc5cccnc5)cc4s3)cc(C)cc2n1 (stereo not drawn) [Example 379, 1-((5-fluoro-2-(2-methoxy-7-methylquinoxalin-5-yl)benzo[d]thiazol-6-yl)oxy)-3-isobutoxypropan-2-yl pyridin-3-ylcarbamate] | 1.7

Other lines, results leading:

IC50 [nM] | SMILES
0.8 | CCOc1ccc2nc(-c3cc(C)cc4nc(COC)cnc34)sc2c1 [Example 255, 6-ethoxy-2-(2-(methoxymethyl)-7-methylquinoxalin-5-yl)benzo[d]thiazole]
1.6 | Cc1cc(-c2nc3c(C)cc(OCCNS(=O)(=O)c4ccc(F)cc4)cc3s2)c2ncc(OCF)nc2c1 [Example 34, 4-fluoro-N-(2-((2-(2-(fluoromethoxy)-7-methylquinoxalin-5-yl)-4-methylbenzo[d]thiazol-6-yl)oxy)ethyl)benzenesulfonamide]
0.7 | COc1cnc2c(-c3nc4cc(F)c(O[C@@H](C)[C@@H](C)OC(=O)Nc5cnc(O[C@H](C)CO)nc5)cc4s3)cc(C)cc2n1 [Example 554, (2R,3S)-3-((5-fluoro-2-(2-methoxy-7-methylquinoxalin-5-yl)benzo[d]thiazol-6-yl)oxy)butan-2-yl (2-(((R)-1-hydroxypropan-2-yl)oxy)pyrimidin-5-yl)carbamate]
1.5 | COc1cnc2c(-c3nc4cc(F)c(O[C@@H](C)[C@@H](C)OC(=O)Nc5ccc(CCO)nc5)cc4s3)cc(C)cc2n1 [Example 387, (2R,3S)-3-((5-fluoro-2-(2-methoxy-7-methylquinoxalin-5-yl)benzo[d]thiazol-6-yl)oxy)butan-2-yl (6-(2-hydroxyethyl)pyridin-3-yl)carbamate]
0.8 | COc1cnc2c(-c3nc4cc(F)c(O[C@@H](C)[C@@H](C)OC(=O)Nc5ccc(OCCO)nc5)nc4s3)cc(C)cc2n1 [Example 725, (2R,3S)-3-((6-fluoro-2-(2-methoxy-7-methylquinoxalin-5-yl)thiazolo[5,4-b]pyridin-5-yl)oxy)butan-2-yl (6-(2-hydroxyethoxy)pyridin-3-yl)carbamate]
2.7 | COCc1cnc2c(-c3nc4c(C(O)CC(F)(F)F)cc(OC)cc4s3)cc(C)cc2n1 (stereo not drawn) [Example 173, 3,3,3-trifluoro-1-(6-methoxy-2-(2-(methoxymethyl)-7-methylquinoxalin-5-yl)benzo[d]thiazol-4-yl)propan-1-ol]
4.9 | COc1cnc2c(-c3nc4c(F)c(F)c(OCCNS(=O)(=O)c5cccc(F)c5)cc4s3)cc(C)cc2n1 [Example 316, N-(2-((4,5-difluoro-2-(2-methoxy-7-methylquinoxalin-5-yl)benzo[d]thiazol-6-yl)oxy)ethyl)-3-fluorobenzenesulfonamide]
0.9 | COc1cnc2c(-c3nc4cc(F)c(OC[C@@H](C)OC(=O)Nc5ccc(OCCO)nc5)nc4s3)cc(C)cc2n1 [Example 700, (R)-1-((6-fluoro-2-(2-methoxy-7-methylquinoxalin-5-yl)thiazolo[5,4-b]pyridin-5-yl)oxy) propan-2-yl (6-(2-hydroxyethoxy)pyridin-3-yl)carbamate]
43 | COC(=O)c1cccc2nc(-c3cc(C)cc4nc(OC(F)F)cnc34)sc12 [Example 61, Methyl 2-(2-(difluoromethoxy)-7-methylquinoxalin-5-yl)benzo[d]thiazole-7-carboxylate]
84 | COc1cnc2c(-c3nc4cc(F)c(O[C@@H](C)[C@@H](C)OC(N)=O)cc4s3)cc(C)cc2n1 [Example 524, (2R,3S)-3-((5-fluoro-2-(2-methoxy-7-methylquinoxalin-5-yl)benzo[d]thiazol-6-yl)oxy) butan-2-yl carbamate]
7.4 | Cc1cc(-c2nc3cccc(CO)c3s2)c2ncc(OC(F)F)nc2c1 [Example 64, (2-(2-(difluoromethoxy)-7-methylquinoxalin-5-yl)benzo[d]thiazol-7-yl)methanol]
